Patent publication US10058550B2, “Methods of treating heart failure” (priority 2015, dated 2018)

Target: human APJ receptor (Homo sapiens (Human), UniProt P35414)
Assay: biochemical
Assay type: biochemical
Details: read-out: Activity hAPJ SPA EC50 IP
Method: The human APJ receptor was cloned by polymerase chain reaction and the gene encoding the receptor was subcloned in pFLAG-CMV™-3 expression vector (Sigma, Saint Louis, Mo. USA) in-house at Amgen. A GTPγS binding assay was performed on membranes prepared from CHO cells stably expressing human APJ receptor. The optimum experimental conditions for the concentrations of GDP, MgCl2, and NaCl in the assay buffer were initially determined. The assay was performed in assay buffer [20 mM HEPES, pH 7.5, 5 mM MgCl2, and 0.1% (w/v) BSA with 200 mM NaCl, 3 μM GDP] and membranes expressing human APJ receptor/well along with WGA PS beads. The reaction was initiated by addition of 0.2 nM [^35S]GTPγS (Perkin Elmer Life and Analytical Sciences, Waltham USA) in the absence or presence of various ligands and incubated at RT for 90 min. […] All the results presented are means of several independent experiments and analyzed by non-linear regression methods using commercially available program Prism (GraphPad, San Diego, Calif.) to obtain EC50 detailed in Table 58.

human APJ receptor, sequence (P35414 whole entry): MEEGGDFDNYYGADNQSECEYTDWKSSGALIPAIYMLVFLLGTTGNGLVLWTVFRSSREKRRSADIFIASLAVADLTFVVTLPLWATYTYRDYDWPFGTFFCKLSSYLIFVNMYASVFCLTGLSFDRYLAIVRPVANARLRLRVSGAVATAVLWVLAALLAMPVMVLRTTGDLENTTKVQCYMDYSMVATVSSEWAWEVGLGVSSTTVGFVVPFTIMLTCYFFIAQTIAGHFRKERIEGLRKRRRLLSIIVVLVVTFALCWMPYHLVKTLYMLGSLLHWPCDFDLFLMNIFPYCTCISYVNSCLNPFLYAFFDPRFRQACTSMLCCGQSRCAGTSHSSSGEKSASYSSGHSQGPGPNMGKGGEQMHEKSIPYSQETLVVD

Work on COc1cccc(OC)c1-n1c(NS(=O)(=O)[C@@H](C)[C@H](C)c2ncc(F)cn2)nnc1-c1cccc(OCC(F)(F)F)n1 [Example 185.0, (2S,3R)-N-(4-(2,6-dimethoxyphenyl)-5-(6-(2,2,2-trifluoroethoxy)pyridin-2-yl)-4H-1,2,4-triazol-3-yl)-3-(5-fluoropyrimidin-2-yl)butane-2-sulfonamide] yielded an EC50 of 0.12 nM.
COc1cccc(OC)c1-n1c(NS(=O)(=O)[C@@H](C)[C@H](OC)c2ccc(F)cc2C#N)nnc1-c1cncc(C)c1 (single isomer, unassigned) [Example 623.0] was tested, and the EC50 was 130 nM.
With COc1cccc(OC)c1-n1c(NS(=O)(=O)[C@@H](C)[C@H](C)c2ncc(F)cn2)nnc1-c1cncc(C)c1 (single isomer, unassigned) [Example 235.0] the EC50 was 0.28 nM.
For COc1cccc(OC)c1-n1c(NS(=O)(=O)[C@@H](C)Cc2ncc(F)cn2)nnc1-c1cncc(C)c1 (single isomer, unassigned) [Example 208.0], the EC50 was 1 nM.
Work on COc1cnc([C@@H](O)[C@H](C)S(=O)(=O)Nc2nnc(-c3cncc(C)c3)n2-c2c(OC)cccc2OC)cn1 (single isomer, unassigned) [Example 309.0] yielded an EC50 of 9.5 nM.
In the case of COc1cccc(OC)c1-n1c(NS(=O)(=O)[C@H](C)[C@@H](O)c2cn3ccccc3n2)nnc1-c1cccnc1 (single isomer, unassigned) [Example 735.0, (1S,2R)—N-(4-(2,6-dimethoxyphenyl)-5-(pyridin-3-yl)-4H-1,2,4-triazol-3-yl)-1-hydroxy-1-(imidazo[1,2-a]pyridin-2-yl)propane-2-sulfonamide or (1R,2S)—N-(4-(2,6-dimethoxyphenyl)-5-(pyridin-3-yl)-4H-1,2,4-triazol-3-yl)-1-hydroxy-1-(imidazo[1,2-a]pyridin-2-yl)propane-2-sulfonamide], the EC50 is reported as 0.48 nM.
CCO[C@H](c1ncc(Cl)cn1)[C@H](C)S(=O)(=O)Nc1nnc(-c2cncc(C)c2)n1-c1c(OC)cccc1OC [Example 610.0, (1R,2S)-1-(5-chloro-2-pyrimidinyl)-N-(4-(2,6-dimethoxyphenyl)-5-(5-methyl-3-pyridinyl)-4H-1,2,4-triazol-3-yl)-1-ethoxy-2-propanesulfonamide] showed an EC50 of 0.3 nM.
In the case of COc1cccc(OC)c1-n1c(NS(=O)(=O)[C@H](C)[C@@H](OC[C@H](C)O)c2ncc(C)cn2)nnc1-c1cncc(C)c1 (single isomer, unassigned) [Example 403.0], the EC50 is reported as 0.21 nM.
With COc1ncnc(OC)c1-n1c(NS(=O)(=O)[C@@H]2C[C@@H](OC)CN(c3ncc(F)cn3)C2)nnc1-c1cccnc1 (stereo in doubt) [Example 815.0, (3S,5S)-N-(4-(4,6-dimethoxy-5-pyrimidinyl)-5-(3-pyridinyl)-4H-1,2,4-triazol-3-yl)-1-(5-fluoro-2-pyrimidinyl)-5-methoxy-3-piperidinesulfonamide, (3R,5R)-N-(4-(4,6-dimethoxy-5-pyrimidinyl)-5-(3-pyridinyl)-4H-1,2,4-triazol-3-yl)-1-(5-fluoro-2-pyrimidinyl)-5-methoxy-3-piperidinesulfonamide] the EC50 was 170 nM.
In the case of COc1cccc(-c2nnc(NS(=O)(=O)[C@@H](C)[C@@H](OC(C)C)c3ncc(C)cn3)n2C2CCOCC2)n1 [Example 837.0, (1S,2S)-N-(5-(6-methoxy-2-pyridinyl)-4-(tetrahydro-2H-pyran-4-yl)-4H-1,2,4-triazol-3-yl)-1-(1-methylethoxy)-1-(5-methyl-2-pyrimidinyl)-2-propanesulfonamide], the EC50 is reported as 5.1 nM.
Cc1cnc([C@@H](C)[C@H](C)S(=O)(=O)Nc2nnc(-c3ccccn3)n2-c2c(F)cccc2F)nc1 [Example 785.0, (2S,3R)-N-(4-(2,6-difluorophenyl)-5-(2-pyridinyl)-4H-1,2,4-triazol-3-yl)-3-(5-methyl-2-pyrimidinyl)-2-butanesulfonamide] showed an EC50 of 4.9 nM.
In the case of COCCOc1cccc(-c2nnc(NS(=O)(=O)[C@@H](C)[C@H](OC)c3ncc(C)cn3)n2-c2c(OC)cccc2OC)n1 [Example 196.0, (1R,2S)-N-(4-(2,6-dimethoxyphenyl)-5-(6-(2-methoxyethoxy)pyridin-2-yl)-4H-1,2,4-triazol-3-yl)-1-methoxy-1-(5-methylpyrimidin-2-yl)propane-2-sulfonamide], the EC50 is reported as 3.4 nM.
COc1cccc(-c2nnc(NS(=O)(=O)[C@@H](C)[C@@H](O)C(C)(C)C)n2-c2c(OC)cccc2OC)n1 (single isomer, unassigned) [Example 436.0, (2S,3S)—N-(4-(2,6-dimethoxyphenyl)-5-(6-methoxy-2-pyridinyl)-4H-1,2,4-triazol-3-yl)-3-hydroxy-4,4-dimethyl-2-pentanesulfonamide or (2R,3R)—N-(4-(2,6-dimethoxyphenyl)-5-(6-methoxy-2-pyridinyl)-4H-1,2,4-triazol-3-yl)-3-hydroxy-4,4-dimethyl-2-pentanesulfonamide] showed an EC50 of 100 nM.
COc1cccc(-c2nnc(NS(=O)(=O)C[C@H](OC)c3ccc(C#N)cc3S(C)(=O)=O)n2-c2c(OC)cccc2OC)n1 (single isomer, unassigned) [Example 486.0, (2R)-2-(4-cyano-2-(methylsulfonyl)phenyl)-N-(4-(2,6-dimethoxyphenyl)-5-(6-methoxy-2-pyridinyl)-4H-1,2,4-triazol-3-yl)-2-methoxyethanesulfonamide or (2S)-2-(4-cyano-2-(methylsulfonyl)phenyl)-N-(4-(2,6-dimethoxyphenyl)-5-(6-methoxy-2-pyridinyl)-4H-1,2,4-triazol-3-yl)-2-methoxyethanesulfonamide] was tested, and the EC50 was 0.073 nM.
For COc1cccc(-c2nnc(NS(=O)(=O)[C@@H](C)[C@H](OC)c3ncc(C)cn3)n2-c2ccccc2C(F)(F)F)n1 (atropisomer, axis not shown; (P)) [Example 74.0, (1R,2S,P)-1-methoxy-N-(5-(6-methoxy-2-pyridinyl)-4-(2-(trifluoromethyl)phenyl)-4H-1,2,4-triazol-3-yl)-1-(5-methyl-2-pyrimidinyl)-2-propanesulfonamide and (1R,2S,M)-1-methoxy-N-(5-(6-methoxy-2-pyridinyl)-4-(2-(trifluoromethyl)phenyl)-4H-1,2,4-triazol-3-yl)-1-(5-methyl-2-pyrimidinyl)-2-propanesulfonamide], the EC50 was 2.5 nM.
For COc1cccc(OC)c1-n1c(NS(=O)(=O)[C@H](C)[C@@H](OC[C@H](C)O)c2ncc(C)cn2)nnc1-c1cncc(C)c1 (single isomer, unassigned) [Example 402.0], the EC50 was 0.86 nM.
For COc1cnc([C@@H](OC)[C@H](C)S(=O)(=O)Nc2nnc(-c3cncc(C)c3)n2-c2c(OC)cccc2OC)cn1 (single isomer, unassigned) [Example 312.0], the EC50 was 27 nM.
Molecule CO[C@H](c1ncc(C)cn1)[C@H](C)S(=O)(=O)Nc1nnc(-c2cncc(C)c2)n1-c1c(F)cccc1F [Example 677.0, (1R,2S)-N-(4-(2,6-difluorophenyl)-5-(5-methylpyridin-3-yl)-4H-1,2,4-triazol-3-yl)-1-methoxy-1-(5-methylpyrimidin-2-yl)propane-2-sulfonamide 2,2,2-trifluoroacetate] has an EC50 of 7.2 nM.
With COc1cccc(OC)c1-n1c(NS(=O)(=O)CCN2C(=O)N(C)CC[C@@H]2C)nnc1-c1cncc(C)c1 [Example 201.0, N-(4-(2,6-dimethoxyphenyl)-5-(5-methyl-3-pyridinyl)-4H-1,2,4-triazol-3-yl)-2-((6S)-3,6-dimethyl-2-oxotetrahydro-1(2H)-pyrimidinyl)ethanesulfonamide] the EC50 was 2.5 nM.
With COc1cccc(OC)c1-n1c(NS(=O)(=O)[C@H](C)[C@@H](C)c2ncc(C)cn2)nnc1-c1cccnc1 [Example 585.0, (2R,3S)—N-(4-(2,6-dimethoxyphenyl)-5-(3-pyridinyl)-4H-1,2,4-triazol-3-yl)-3-(5-methyl-2-pyrimidinyl)-2-butanesulfonamide] the EC50 was 25 nM.
Molecule COc1cccc(OC)c1-n1c(NS(=O)(=O)[C@H](C)[C@@H](OC)c2ccc(C#N)cn2)nnc1-c1cncc(C)c1 (single isomer, unassigned) [Example 552.0] has an EC50 of 0.28 nM.
COc1cccc(OC)c1-n1c(NS(=O)(=O)[C@@H](C)[C@H](C)c2ncc(F)cn2)nnc1-c1cccc(Cl)n1 [Example 454.0, (2S,3R)—N-(5-(6-chloro-2-pyridinyl)-4-(2,6-dimethoxyphenyl)-4H-1,2,4-triazol-3-yl)-3-(5-fluoro-2-pyrimidinyl)-2-butanesulfonamide] was tested, and the EC50 was 0.84 nM.
Molecule COc1cccc(-c2nnc(NS(=O)(=O)[C@@H](C)[C@H](O)c3ccc(F)cc3F)n2-c2c(OC)cccc2OC)n1 (single isomer, unassigned) [Example 282.0] has an EC50 of 0.71 nM.
With COc1cccc(OC)c1-n1c(NS(=O)(=O)[C@@H](C)[C@H](OC)c2ncc(C)cn2)nnc1-c1cccc(N(C)C)n1 [Example 197.0, (1R,2S)-N-(4-(2,6-dimethoxyphenyl)-5-(6-(dimethylamino)pyridin-2-yl)-4H-1,2,4-triazol-3-yl)-1-methoxy-1-(5-methylpyrimidin-2-yl)propane-2-sulfonamide] the EC50 was 0.21 nM.
For COc1cccc(OC)c1-n1c(NS(=O)(=O)[C@@H](C)[C@H](O)c2ncc(C)cn2)nnc1-c1cccnc1 [Example 616.0, (1R,2S)—N-(4-(2,6-dimethoxyphenyl)-5-(pyridin-3-yl)-4H-1,2,4-triazol-3-yl)-1-hydroxy-1-(5-methylpyrimidin-2-yl)propane-2-sulfonamide], the EC50 was 0.46 nM.
